Consider four molecules from PubChem BioAssay AID2060511 (Molecular Pharmacology Branch, DTP, NCI, 2025).

Several values for one entry are separate records, joined by “and”; a condition that tells them apart may be missing. Equal values may be shown once.

The subject of this test is 422866-222-R5-J1-PDC spheroids with HUVEC/MSC, viability. As to the kind of experiment: Anticancer human tumor 422866-222-R5-J1-PDC patient-derived pancreatic adenocarcinoma cell line growth inhibition [GQUAD]. Particulars: for viability, T/C: stronger effect = lower value. From the text:
DNA G-quadruplex Stabilizer Agents in Combinations in Complex Spheroids
A high-throughput screen of multi-cell type tumor spheroids was designed to identify active combinations of DNA G-quadruplex stabilizer agents and targeted small molecules. Complex spheroids include a stromal component modeled by human endothelial cells (HUVEC) and fibroblasts modeled by human mesenchymal stem cells (MSCs). The concentration ranges selected for each drug and investigational agent were based upon clinically achievable concentrations if the clinical Cmax of the agent was known.
Compounds. The drugs and investigational agents: pidnarulex (CX-5461; NSC782164), APTO-253 (NSC789042), BRACO-19 (NSC847499), peposertib (NSC802822), ceralasertib (NSC780249), elimusertib (NSC800525), camonsertib (NSC841442), AZD-1390 (NSC803789), olaparib (NSC753686), talazoparib (NSC767125), ART-558 (NSC835418), sotorasib (NSC818433), MRTX-1133 (NSC836407), SN-38 (NSC673596), topotecan (NSC609699), etoposide (NSC141540), doxorubicin (NSC123127), gemcitabine (NSC613327), 5-fluorouracil (NSC19893), paclitaxel (NSC125973), vemurafenib (NSC761431), panobinostat (NSC761190), R-306465 (JNJ-16241199; NSC773264), adavosertib (NSC754352), TP-3654 (NSC805149), carboplatin (NSC241240), KSQ-4279 (NSC840948), and staurosporine (NSC755774) were obtained from the National Cancer Institute (NCI) Developmental Therapeutics Program Chemical Repository (34). The FDA-approved anticancer drug set is available from the NCI Developmental Therapeutics Program. […] The stock solutions were prepared in dimethyl sulfoxide (DMSO, Sigma-Aldrich, St. Louis, MO, cat. D2650) at 800-fold the tested concentration and stored at -70 degrees C prior to their use. All drugs and investigational agents were tested over a range starting from a high concentration at or near the clinical Cmax and decreasing in half-log increments. If the clinical Cmax for an agent had not been determined, the highest concentration tested was 10 microM.
2.3 Cell Culture. All cells were maintained in an incubator at 37 degrees C and 5% CO2 with 95% humidity. The PDC lines were cultured according to standard operating procedures established by the NCI PDMR. All PDCs were thawed and cultured in Matrigel-coated flasks prepared with a working solution of 1X Ham's F-12 nutrient mix, without supplementation (Invitrogen, cat. 11765054), 100 U/mL penicillin-streptomycin (Invitrogen, cat. 15140122), and 2.5% Matrigel (Corning Inc., cat. 354248) for the first three passages. The 857933-349-R-J2-PDC line was cultured in 6C/Colon 1B media, which includes advanced DMEM/F-12 (Thermo Fisher Scientific, cat. 12634028), 10 mM HEPES (Thermo Fisher Scientific, cat. 15630080), 1X GlutaMAX supplement (Thermo Fisher Scientific, cat. 35050061), 0.1 mg/mL primocin (InvivoGen, cat. ant-pm-2), 10% defined fetal bovine serum, heat inactivated (HyClone Laboratories Inc., cat. SH30070.03HI), 50% L-WRN conditioned media (ATCC, cat. CRL-3276), 1.25 mM N-Acetyl-L-cysteine (Sigma-Aldrich, cat. A9165), 10 mM nicotinamide (Sigma-Aldrich, cat. N0636), 1X B-27 supplement (Thermo Fisher Scientific, cat. 17504044), 1X N-2 supplement (Thermo Fisher Scientific, cat. 17502048), 10 microM Y-27632 dihydrochloride (Tocris Bioscience, cat. 1254), and 50 ng/mL human EGF recombinant protein (Thermo Fisher Scientific, cat. PHG0311). The 485176-168-R4-J1-PDC line was cultured in Panc media, which includes all 6C/Colon 1B media components plus 100 ng/mL human FGF-10 (Thermo Fisher Scientific, cat. 100-26), 500 nM SB-431542 (Selleckchem, cat. S1067), and gastrin (Tocris, cat. 3006).
[…]
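Further: spheroids exposed to compounds for seven days before reading.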
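Wherever viability, T/C is given: percent viability relative to DMSO vehicle control taken as 100%.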

Regarding `C=CC(=O)N1CCN(c2nc(=O)n(-c3c(C)ccnc3C(C)C)c3nc(-c4c(O)cccc4F)c(F)cc23)C(C)C1` (stereo not drawn) + CN(C)c1ccc(Nc2c3ccc(NC(=O)CCN4CCCC4)cc3nc3cc(NC(=O)CCN4CCCC4)ccc23)cc1, the concentration for half-maximal inhibition (IC50) runs as follows: (curve of first compound, second compound 0.0316 µM) under 0.0316 µM; (curve of first compound, second compound 0.1 µM) under 0.0316 µM; (curve of first compound, second compound 0.316 µM) under 0.0316 µM; (curve of first compound, second compound 1 µM) under 0.0316 µM; (curve of first compound, second compound 3.16 µM) under 0.0316 µM; (curve of first compound, second compound 10 µM) under 0.0316 µM. The viability, T/C is, setting by setting: (second compound 0.0316 µM, first compound 0.0316 µM) 39.3%; (second compound 0.0316 µM, first compound 0.1 µM) 32.5%; (second compound 0.0316 µM, first compound 0.316 µM) 29.6%; (second compound 0.0316 µM, first compound 1 µM) 25.2%; (second compound 0.0316 µM, first compound 3.16 µM) 26.4%; (second compound 0.0316 µM, first compound 10 µM) 30%. The viability, T/C is, setting by setting: (second compound 0.1 µM, first compound 0.0316 µM) 37.9%; (second compound 0.1 µM, first compound 0.1 µM) 29.4%; (second compound 0.1 µM, first compound 0.316 µM) 26.6%; (second compound 0.1 µM, first compound 1 µM) 22.7%; (second compound 0.1 µM, first compound 3.16 µM) 27.3%; (second compound 0.1 µM, first compound 10 µM) 26.4%. Moreover, the viability, T/C by setting is: (second compound 0.316 µM, first compound 0.0316 µM) 41.9%; (second compound 0.316 µM, first compound 0.1 µM) 25.2%; (second compound 0.316 µM, first compound 0.316 µM) 29.9%; (second compound 0.316 µM, first compound 1 µM) 25.7%; (second compound 0.316 µM, first compound 3.16 µM) 30.7%; (second compound 0.316 µM, first compound 10 µM) 28.7%. The viability, T/C reads like this: (second compound 1 µM, first compound 0.0316 µM) 27.8%; (second compound 1 µM, first compound 0.1 µM) 27.9%; (second compound 1 µM, first compound 0.316 µM) 25.1%; (second compound 1 µM, first compound 1 µM) 23.9%; (second compound 1 µM, first compound 3.16 µM) 24.7%; (second compound 1 µM, first compound 10 µM) 28%. Also, the viability, T/C runs as follows: (second compound 3.16 µM, first compound 0.0316 µM) 31.2%; (second compound 3.16 µM, first compound 0.1 µM) 25.5%; (second compound 3.16 µM, first compound 0.316 µM) 24.3%; (second compound 3.16 µM, first compound 1 µM) 25.3%; (second compound 3.16 µM, first compound 3.16 µM) 25%; (second compound 3.16 µM, first compound 10 µM) 28.3%. The viability, T/C is, setting by setting: (second compound 10 µM, first compound 0.0316 µM) 29.5%; (second compound 10 µM, first compound 0.1 µM) 27.3%; (second compound 10 µM, first compound 0.316 µM) 25.7%; (second compound 10 µM, first compound 1 µM) 29%; (second compound 10 µM, first compound 3.16 µM) 28.8%; (second compound 10 µM, first compound 10 µM) 29.1%.

Consider `CC1COCCN1c1cc(C2(O)CC3CCC(C2)O3)c2cnn(-c3ccn[nH]3)c2n1` (stereo not drawn), for which the viability, T/C reads like this: (compound 0.0316 µM) 79.2% and 81.7% and 79.9%; (compound 0.1 µM) 44.1% and 40% and 47.8%; (compound 0.316 µM) 42.2% and 37.5% and 56.3%; (compound 1 µM) 57.8% and 66.2% and 79.9%; (compound 3.16 µM) 89.3% and 91.2% and 80.4%; (compound 10 µM) 90.9% and 96% and 90.3%. The concentration for half-maximal inhibition (IC50) (curve of compound) is over 10 µM.

`CC1COCCN1c1cc(C2(S(C)(=N)=O)CC2)nc(-c2ccnc3[nH]ccc23)n1` (stereo not drawn): the viability, T/C (compound 0.0316 µM) is 81.8% and 101% and 93.1%; the viability, T/C (compound 0.1 µM) is 90.2% and 107% and 98.3%; the viability, T/C (compound 0.316 µM) is 105% and 97.1% and 114%; the viability, T/C (compound 1 µM) was 70.9% and 82.1% and 91.5%; the viability, T/C (compound 3.16 µM) is 43% and 44.8% and 50.8%; the viability, T/C (compound 10 µM) was 38% and 39.5% and 36.4%. Besides, for the setting “curve of compound”, the IC50 was 2.21 µM and 2.77 µM and 3.24 µM.

With `O=C(c1cc(Cc2n[nH]c(=O)c3ccccc23)ccc1F)N1CCN(C(=O)C2CC2)CC1`, the viability, T/C is 95.7% and 90.6% and 98.8% (compound 0.0316 µM); 89.7% and 88.2% and 93.5% (compound 0.1 µM); 95.3% and 90.9% and 94% (compound 0.316 µM); 81.4% and 92.8% and 99.6% (compound 1 µM); 74% and 86.8% and 84% (compound 3.16 µM); 79.3% and 66.8% and 59% (compound 10 µM). Further, the half-maximal inhibitory concentration (IC50) (curve of compound) was over 10 µM.
